{"source": "patent US20250205164A1", "about": "“FPR2 AGONIST CONTAINING OUTER MEMBRANE VESICLES DERIVED FROM LACTIC ACID BACTERIUM” (ASAHI GROUP HOLDINGS, LTD., priority 2022, published 2025)", "tested_on": "M2 macrophages differentiated from human monocyte-derived cells (THP-1)", "test": "IL-10 inducing ability in M2 macrophages (Human IL-10 ELISA of culture supernatant)", "type": "cell-based", "conditions": "Reference Example 1; 500 ng/ml FSL-1, 5000 nM WKYMVm at preparation, final 1/50; 24 hours; n=6", "experimental": "The anti-inflammatory cytokine IL-10 inducing ability in M2 macrophages differentiated from human monocyte-derived cells (THP-1, JCRB Cell Bank) was evaluated by the following procedure, which is a modification of the method described in the literature (BMC Cancer 15:577 (2015)). […]\nAfter the culture, the culture supernatant was collected, and the IL-10 concentration in the supernatant was calculated using Human IL-10 DuoSet ELISA (R&D Systems). […]\nStudent's t-test was used for statistical processing. […] The results of IL-10 concentration are shown as the average of the values measured in six tests. […]\nThe IL-10 inducing activity of the test samples was evaluated according to the procedure described in [Reference Example 1] above. […]\nThe IL-10 induction rate was calculated according to the following formula. […]", "data": [{"substance": "FSL-1", "values": [{"measurement": "IL-10 Concentration (pg/mL) Average", "result": 180.8, "unit": "pg/mL"}]}]}
